Experimental findings from ChEMBL document CHEMBL5653631, “A Potent and Selective ULK1 Inhibitor Suppresses Autophagy and Sensitizes Cancer Cells to Nutrient Stress” (iScience, 2018) are described below.

Test [1] has as its target Vascular endothelial growth factor receptor 2 (Homo sapiens) (UniProt P35968). Nature of the test: Inhibition of human recombinant KDR at 15 nM in presence of ATP by radiometric assay relative to control.
In test [2] the target is SRSF protein kinase 3 (Homo sapiens) (UniProt Q9UPE1). Nature of the test: Inhibition of human recombinant MSSK1 at 15 nM in presence of ATP by radiometric assay relative to control.
Sequence of SRSF protein kinase 3 (Homo sapiens) (Q9UPE1 whole entry): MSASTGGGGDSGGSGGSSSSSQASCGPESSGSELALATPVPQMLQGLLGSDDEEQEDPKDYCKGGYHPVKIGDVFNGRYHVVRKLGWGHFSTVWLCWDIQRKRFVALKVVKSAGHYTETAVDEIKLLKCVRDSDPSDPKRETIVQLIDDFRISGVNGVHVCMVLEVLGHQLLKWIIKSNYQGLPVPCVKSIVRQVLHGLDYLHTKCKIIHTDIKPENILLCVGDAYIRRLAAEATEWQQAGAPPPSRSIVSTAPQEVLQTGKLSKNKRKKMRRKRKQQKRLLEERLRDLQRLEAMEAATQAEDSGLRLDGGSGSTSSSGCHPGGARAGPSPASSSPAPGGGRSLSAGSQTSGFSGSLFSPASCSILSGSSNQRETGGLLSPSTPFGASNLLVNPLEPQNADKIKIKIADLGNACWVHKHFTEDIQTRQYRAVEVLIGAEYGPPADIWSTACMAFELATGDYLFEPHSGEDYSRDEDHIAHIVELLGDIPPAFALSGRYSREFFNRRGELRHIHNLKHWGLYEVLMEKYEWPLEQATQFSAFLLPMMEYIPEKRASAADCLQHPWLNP
Test [3] has as its target Mitogen-activated protein kinase 9 (Homo sapiens) (UniProt P45984). Nature of the test: Inhibition of human recombinant JNK2 at 15 nM in presence of ATP by radiometric assay relative to control.
In test [4] the target is Proto-oncogene tyrosine-protein kinase receptor Ret (Homo sapiens) (UniProt P07949). Put plainly: Inhibition of human recombinant RET at 15 nM related to control ULK1.
Sequence of Proto-oncogene tyrosine-protein kinase receptor Ret (Homo sapiens) (P07949 whole entry): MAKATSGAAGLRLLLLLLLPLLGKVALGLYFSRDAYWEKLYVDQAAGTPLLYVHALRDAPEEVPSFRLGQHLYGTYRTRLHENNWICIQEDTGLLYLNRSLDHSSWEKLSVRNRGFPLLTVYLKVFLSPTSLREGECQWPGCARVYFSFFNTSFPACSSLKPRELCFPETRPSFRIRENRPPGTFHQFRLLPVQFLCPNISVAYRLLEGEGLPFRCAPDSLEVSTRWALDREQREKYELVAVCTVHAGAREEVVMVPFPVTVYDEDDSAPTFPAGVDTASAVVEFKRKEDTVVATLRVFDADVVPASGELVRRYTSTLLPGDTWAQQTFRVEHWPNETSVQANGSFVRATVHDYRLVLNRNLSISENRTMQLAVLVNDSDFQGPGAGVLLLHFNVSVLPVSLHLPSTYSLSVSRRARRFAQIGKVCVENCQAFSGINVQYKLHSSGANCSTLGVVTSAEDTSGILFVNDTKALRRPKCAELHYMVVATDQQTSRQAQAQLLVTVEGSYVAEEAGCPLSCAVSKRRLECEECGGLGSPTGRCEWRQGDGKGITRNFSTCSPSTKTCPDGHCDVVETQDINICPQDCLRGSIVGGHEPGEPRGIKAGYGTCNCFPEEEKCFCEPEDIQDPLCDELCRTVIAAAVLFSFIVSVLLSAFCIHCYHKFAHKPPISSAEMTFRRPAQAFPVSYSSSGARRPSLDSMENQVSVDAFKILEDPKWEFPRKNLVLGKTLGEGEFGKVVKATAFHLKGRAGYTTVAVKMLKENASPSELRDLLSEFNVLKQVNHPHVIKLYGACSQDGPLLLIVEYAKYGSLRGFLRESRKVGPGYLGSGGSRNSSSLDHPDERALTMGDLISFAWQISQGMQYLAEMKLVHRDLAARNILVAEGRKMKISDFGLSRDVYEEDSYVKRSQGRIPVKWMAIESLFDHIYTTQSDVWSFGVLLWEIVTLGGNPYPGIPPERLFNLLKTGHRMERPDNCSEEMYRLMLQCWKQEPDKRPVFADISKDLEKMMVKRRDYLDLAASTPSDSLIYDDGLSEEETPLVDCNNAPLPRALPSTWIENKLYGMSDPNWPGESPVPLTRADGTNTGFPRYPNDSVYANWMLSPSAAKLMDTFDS
The target of test [5] is Serine/threonine-protein kinase pim-1 (Homo sapiens) (UniProt P11309). Nature of the test: Inhibition of human recombinant PIM1 at 15 nM in presence of ATP by radiometric assay relative to control.
Sequence of Serine/threonine-protein kinase pim-1 (Homo sapiens) (P11309 whole entry, looked up): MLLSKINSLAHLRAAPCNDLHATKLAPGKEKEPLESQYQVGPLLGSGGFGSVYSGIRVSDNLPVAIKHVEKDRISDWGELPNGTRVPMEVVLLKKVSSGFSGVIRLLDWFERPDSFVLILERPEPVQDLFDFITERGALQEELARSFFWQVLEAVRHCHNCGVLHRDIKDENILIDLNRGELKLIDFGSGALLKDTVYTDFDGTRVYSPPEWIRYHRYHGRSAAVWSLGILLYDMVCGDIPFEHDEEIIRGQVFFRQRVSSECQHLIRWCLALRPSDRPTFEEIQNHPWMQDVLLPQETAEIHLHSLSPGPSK
The target of test [6] is T1, Mitogen-activated protein kinase 12 (Homo sapiens) (UniProt P53778).
T1 sequence (whole entry): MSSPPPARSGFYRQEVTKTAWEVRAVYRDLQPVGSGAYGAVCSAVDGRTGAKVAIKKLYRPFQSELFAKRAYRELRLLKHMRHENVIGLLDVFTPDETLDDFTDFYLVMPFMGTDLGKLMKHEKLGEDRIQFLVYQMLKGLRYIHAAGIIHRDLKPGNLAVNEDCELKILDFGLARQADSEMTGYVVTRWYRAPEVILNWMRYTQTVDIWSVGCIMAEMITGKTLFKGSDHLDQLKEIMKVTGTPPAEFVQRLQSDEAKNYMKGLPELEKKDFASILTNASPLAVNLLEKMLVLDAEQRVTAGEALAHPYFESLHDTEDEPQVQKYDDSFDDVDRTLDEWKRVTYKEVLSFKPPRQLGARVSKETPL
Nature of the test: Inhibition of human recombinant p38gamma at 40 nM in presence of ATP by radiometric assay relative to control.

In test [7] the target is T2, Ephrin type-A receptor 8 (Homo sapiens) (UniProt P29322).
T2 sequence (whole entry): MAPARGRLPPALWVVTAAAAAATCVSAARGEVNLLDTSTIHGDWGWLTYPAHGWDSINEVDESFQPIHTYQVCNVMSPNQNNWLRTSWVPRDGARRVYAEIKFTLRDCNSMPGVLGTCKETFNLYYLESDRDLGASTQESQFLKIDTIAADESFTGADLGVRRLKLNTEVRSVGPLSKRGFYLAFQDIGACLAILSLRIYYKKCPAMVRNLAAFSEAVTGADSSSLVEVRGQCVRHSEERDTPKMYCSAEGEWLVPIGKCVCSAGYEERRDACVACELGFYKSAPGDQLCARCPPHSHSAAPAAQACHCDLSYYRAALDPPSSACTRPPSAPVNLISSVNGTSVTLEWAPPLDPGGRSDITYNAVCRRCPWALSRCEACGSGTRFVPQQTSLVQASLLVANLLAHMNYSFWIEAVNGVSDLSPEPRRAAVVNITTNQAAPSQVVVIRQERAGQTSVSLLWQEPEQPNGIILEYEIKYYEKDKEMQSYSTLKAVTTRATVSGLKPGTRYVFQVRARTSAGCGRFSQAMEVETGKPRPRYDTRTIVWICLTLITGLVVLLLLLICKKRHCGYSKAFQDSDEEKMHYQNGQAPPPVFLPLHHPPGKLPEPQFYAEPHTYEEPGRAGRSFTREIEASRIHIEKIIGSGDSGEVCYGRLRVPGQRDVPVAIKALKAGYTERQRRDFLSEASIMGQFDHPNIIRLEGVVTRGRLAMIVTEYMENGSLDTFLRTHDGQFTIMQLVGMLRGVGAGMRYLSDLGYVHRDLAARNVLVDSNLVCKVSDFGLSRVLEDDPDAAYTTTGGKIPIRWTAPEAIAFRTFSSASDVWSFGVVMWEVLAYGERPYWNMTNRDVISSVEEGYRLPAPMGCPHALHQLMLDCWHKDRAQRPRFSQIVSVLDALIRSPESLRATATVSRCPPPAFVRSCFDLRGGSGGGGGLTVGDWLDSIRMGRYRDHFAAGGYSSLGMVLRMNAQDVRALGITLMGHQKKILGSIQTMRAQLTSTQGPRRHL
Put plainly: Inhibition of human recombinant EphA8 at 500 nM related to control ULK1.

Test [8] addresses Interleukin-1 receptor-associated kinase 1 (Homo sapiens) (UniProt P51617). Put plainly: Inhibition of human recombinant IRAK1 at 500 nM in presence of ATP by radiometric assay relative to control.
Test [9] concerns the target Dual specificity mitogen-activated protein kinase kinase 2 (Homo sapiens) (UniProt P36507). Nature of the test: Inhibition of human recombinant MAP2K2 at 500 nM in presence of ATP by radiometric assay relative to control.
In test [10] the target is T3, Serine/threonine-protein kinase Sgk3 (Homo sapiens) (UniProt Q96BR1).
T3 sequence (whole entry): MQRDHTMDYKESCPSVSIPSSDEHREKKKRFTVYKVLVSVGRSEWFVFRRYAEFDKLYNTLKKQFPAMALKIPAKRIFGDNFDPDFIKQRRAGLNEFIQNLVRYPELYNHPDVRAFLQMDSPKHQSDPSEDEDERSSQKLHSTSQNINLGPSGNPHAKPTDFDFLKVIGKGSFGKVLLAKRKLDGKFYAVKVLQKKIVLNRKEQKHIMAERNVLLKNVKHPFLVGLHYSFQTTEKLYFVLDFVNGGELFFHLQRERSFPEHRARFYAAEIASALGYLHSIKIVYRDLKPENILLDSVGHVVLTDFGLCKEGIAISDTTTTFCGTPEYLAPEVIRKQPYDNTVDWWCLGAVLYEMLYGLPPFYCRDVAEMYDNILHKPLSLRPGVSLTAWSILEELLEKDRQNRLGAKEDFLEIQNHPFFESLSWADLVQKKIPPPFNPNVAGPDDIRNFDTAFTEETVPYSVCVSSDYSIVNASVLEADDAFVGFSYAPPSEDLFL
Nature of the test: Inhibition of human recombinant SGK3 at 500 nM in presence of ATP by radiometric assay relative to control.

The target of test [11] is Vascular endothelial growth factor receptor 3 (Homo sapiens) (UniProt P35916). Nature of the test: Inhibition of human recombinant FLT4 at 500 nM related to control ULK1.

Sequence of Vascular endothelial growth factor receptor 2 (Homo sapiens) (P35968 whole entry): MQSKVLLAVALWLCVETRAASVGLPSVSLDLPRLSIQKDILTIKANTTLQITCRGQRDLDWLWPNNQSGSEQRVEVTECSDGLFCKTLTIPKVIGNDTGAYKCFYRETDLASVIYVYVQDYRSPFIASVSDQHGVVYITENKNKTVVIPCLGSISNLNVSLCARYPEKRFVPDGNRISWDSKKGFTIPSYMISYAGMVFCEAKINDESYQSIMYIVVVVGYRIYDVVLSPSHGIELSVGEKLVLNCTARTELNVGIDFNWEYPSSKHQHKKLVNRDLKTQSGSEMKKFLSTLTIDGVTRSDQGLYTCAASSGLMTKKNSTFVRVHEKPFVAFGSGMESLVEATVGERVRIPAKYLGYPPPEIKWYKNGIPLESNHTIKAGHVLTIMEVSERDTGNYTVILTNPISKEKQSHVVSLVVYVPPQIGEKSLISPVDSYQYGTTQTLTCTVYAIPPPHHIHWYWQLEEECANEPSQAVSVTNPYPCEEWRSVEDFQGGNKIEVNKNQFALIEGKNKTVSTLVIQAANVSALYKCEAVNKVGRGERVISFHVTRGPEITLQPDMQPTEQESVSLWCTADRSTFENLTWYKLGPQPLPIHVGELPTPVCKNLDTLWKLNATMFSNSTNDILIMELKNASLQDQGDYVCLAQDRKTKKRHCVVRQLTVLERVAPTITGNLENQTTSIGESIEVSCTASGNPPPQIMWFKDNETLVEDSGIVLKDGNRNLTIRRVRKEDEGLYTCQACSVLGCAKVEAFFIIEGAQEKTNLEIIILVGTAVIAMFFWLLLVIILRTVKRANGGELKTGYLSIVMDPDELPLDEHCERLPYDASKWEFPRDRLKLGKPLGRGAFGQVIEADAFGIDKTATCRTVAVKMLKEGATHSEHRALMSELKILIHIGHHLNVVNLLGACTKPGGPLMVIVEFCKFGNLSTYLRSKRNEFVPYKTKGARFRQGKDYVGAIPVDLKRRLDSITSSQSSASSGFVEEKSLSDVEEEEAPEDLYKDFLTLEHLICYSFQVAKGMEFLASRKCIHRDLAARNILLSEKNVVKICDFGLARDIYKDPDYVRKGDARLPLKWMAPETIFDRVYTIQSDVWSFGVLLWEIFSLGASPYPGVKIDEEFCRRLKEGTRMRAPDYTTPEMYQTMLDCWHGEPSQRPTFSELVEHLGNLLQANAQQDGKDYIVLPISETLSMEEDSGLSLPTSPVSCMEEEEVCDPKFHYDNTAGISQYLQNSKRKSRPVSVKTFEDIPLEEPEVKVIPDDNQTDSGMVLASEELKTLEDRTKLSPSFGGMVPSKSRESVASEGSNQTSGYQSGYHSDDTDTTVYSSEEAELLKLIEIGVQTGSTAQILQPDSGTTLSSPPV
Sequence of Dual specificity mitogen-activated protein kinase kinase 2 (Homo sapiens) (P36507 whole entry): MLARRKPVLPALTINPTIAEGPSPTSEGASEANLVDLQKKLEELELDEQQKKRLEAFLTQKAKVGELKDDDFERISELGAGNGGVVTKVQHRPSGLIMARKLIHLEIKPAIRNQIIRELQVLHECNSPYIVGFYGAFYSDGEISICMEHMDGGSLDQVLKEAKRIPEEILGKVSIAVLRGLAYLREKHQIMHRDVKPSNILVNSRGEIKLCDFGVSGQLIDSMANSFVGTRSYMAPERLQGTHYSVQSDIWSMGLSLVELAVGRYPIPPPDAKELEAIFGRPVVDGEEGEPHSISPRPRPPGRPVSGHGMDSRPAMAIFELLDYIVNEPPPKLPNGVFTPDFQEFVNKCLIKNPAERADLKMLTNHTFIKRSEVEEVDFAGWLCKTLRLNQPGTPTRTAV
Sequence of Interleukin-1 receptor-associated kinase 1 (Homo sapiens) (P51617 whole entry, looked up): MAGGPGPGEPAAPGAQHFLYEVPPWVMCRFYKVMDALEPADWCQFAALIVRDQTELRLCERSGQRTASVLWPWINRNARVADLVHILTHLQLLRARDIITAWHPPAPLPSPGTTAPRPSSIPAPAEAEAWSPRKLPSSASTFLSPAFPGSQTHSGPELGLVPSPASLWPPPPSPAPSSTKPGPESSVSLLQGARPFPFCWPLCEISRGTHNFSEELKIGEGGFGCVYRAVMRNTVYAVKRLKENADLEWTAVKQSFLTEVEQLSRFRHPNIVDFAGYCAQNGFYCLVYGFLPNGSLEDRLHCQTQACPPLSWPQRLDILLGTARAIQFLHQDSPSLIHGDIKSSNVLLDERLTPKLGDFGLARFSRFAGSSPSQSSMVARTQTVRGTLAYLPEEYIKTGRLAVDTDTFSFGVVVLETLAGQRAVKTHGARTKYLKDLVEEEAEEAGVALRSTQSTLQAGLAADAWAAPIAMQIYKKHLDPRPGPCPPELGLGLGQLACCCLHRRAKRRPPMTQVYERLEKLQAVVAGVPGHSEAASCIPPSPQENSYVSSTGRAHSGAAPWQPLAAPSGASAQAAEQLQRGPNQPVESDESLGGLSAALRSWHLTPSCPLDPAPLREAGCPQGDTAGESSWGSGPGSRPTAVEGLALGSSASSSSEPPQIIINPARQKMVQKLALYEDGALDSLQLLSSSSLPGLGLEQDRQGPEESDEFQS
Sequence of Mitogen-activated protein kinase 9 (Homo sapiens) (P45984 whole entry, looked up): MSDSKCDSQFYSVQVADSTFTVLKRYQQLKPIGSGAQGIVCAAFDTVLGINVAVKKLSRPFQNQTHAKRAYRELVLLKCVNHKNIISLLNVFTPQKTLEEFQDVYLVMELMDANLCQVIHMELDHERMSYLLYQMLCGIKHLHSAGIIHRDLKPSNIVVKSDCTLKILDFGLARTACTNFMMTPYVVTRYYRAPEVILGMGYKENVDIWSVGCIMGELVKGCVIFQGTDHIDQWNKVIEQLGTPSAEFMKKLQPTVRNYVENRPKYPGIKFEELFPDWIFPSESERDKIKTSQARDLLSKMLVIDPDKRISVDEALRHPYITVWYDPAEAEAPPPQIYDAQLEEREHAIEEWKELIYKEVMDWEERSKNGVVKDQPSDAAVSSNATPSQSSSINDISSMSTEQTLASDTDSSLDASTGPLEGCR

`CC(C)[C@H](NC(=O)c1cc(-c2cnn3cc(-c4ccc(OCCN5CCCCC5)cc4)cnc23)cs1)C(F)(F)F`: the inhibition (in general, the share of the control response that was lost under treatment) was determined as 20% in test [1], 0% in test [2], 0% in test [3] and 14% in test [5]. Besides, in test [4], the fold change (FC) turned out to be 0.16.

With `O=C(N[C@@H](C1CC1)C(F)(F)F)c1cc(-c2cnn3cc(-c4ccc(F)cc4)cnc23)cs1`, the inhibition in [6] came out at 0%.

Regarding `CNC(=O)c1ccccc1Oc1nc(Nc2cc(OC)c(OC)c(OC)c2)ncc1Br`, the fold change (FC) in test [7] was determined as 0.03; in test [11] it was 0.31. Besides, the inhibition in test [8] worked out at 15%; in test [9], 0%; in test [10], 1%.
